For three molecules, MIC and resistance phenotype results are on record in patent publication US6570001B1, “Polynucleotides and their use for detecting resistance to streptogramin A or to streptogramin B and related compounds” (priority 1997, dated 2003).

For test [1], the system named is Staphylococcal strains resistant to streptogramins. To be noted: staphylococci resistant to synergistic mixtures of A and B compounds / to A compounds (Allignet et al., 1996); cited from earlier work.
Test [2] deals with S. aureus recipient strain RN4220 harboring pIP1714. The test is described as follows: Susceptibility of S. aureus RN4220 transformant harboring pIP1714 (vatC, vgbB). To be noted: RN4220 transformant harboring pIP1714, selected on 10 μg/ml pristinamycin IIA. The format is cell-based. As to the method: The strain BM10711 harbored several plasmids including pIP1714 (5 kb). This plasmid was isolated by electroporation in a S. aureus recipient strain, RN4220. The transformant, harboring pIP1714, was selected on BHIA containing 10 μg/ml pristinamycin IIA.
Susceptibility to antimicrobial agents was determined with a disk diffusion assay and commercially available disks (Diagnostic Pasteur). Additional disks prepared in our laboratory contained streptogramin A (20 μg) or streptogramin B (40 μg).
(§1) Minimal inhibitory concentrations (MICs) of antibiotics were determined by serial twofold dilutions of antibiotics in MHA (Ericson H. M. and S. C. Sherris, ActaPathol. Microbiol. Scand., 1971, Suppl. 217:Section B).

In test [3] the test system is S. aureus recipient RN4220 transformants carrying recombinant plasmid pIP1717. The test is described as follows: MICs by serial twofold dilutions in MHA, S. aureus RN4220 transformants carrying pIP1717 (vgaB). It is filed as cell-based. To be noted: S. aureus RN4220 transformants with pIP1717.
Excerpt: First, the 2.4 kb HindIII-Haelll fragment of pIP1675, which contains only 10 nucleotide from vatB, was inserted into plasmid pOX300, and the recombinant plasmid, pIP1717 (FIG. 1B), was introduced by electroporation into the S. aureus recipient, RN4220 (Kreiswirth et al., 1983). Plasmid pOX300, also named pOX7, (Dyke and Curnock, 1989), is a hybrid of pUC18 and pEl94ts and replicates in E. coli where it confers resistance to ampicillin and to erythromycin, and in S. aureus where only resistance to erythromycin is expressed. The S. aureus transformants selected on 10 μg/ml erythromycin were resistant to streptogramin A and related compounds (PIIA MICs=8-16 μg/ml). Thus, the 2.4-kb HindIII-HaeIII insert of pIP1717 (FIG. 1B) probably carried a streptogramin A resistance gene and was sequenced. The nucleotide (nucleotide) sequence of this fragment was determined by the dideoxy method (Sanger et al., 1977) with the reagents and the procedure recommended by the suppliers of the T^7 sequencing kit (Pharmacia International). Arrows indicate the direction and extent of each dideoxy-sequencing reaction. (FIG. 1B).
as §1

Regarding `CC1=C\[C@@H](O)CC(=O)Cc2nc(co2)C(=O)N2CCC=C2C(=O)O[C@H](C(C)C)[C@H](C)/C=C/C(=O)NC\C=C\1` [PIIA, pristinamycin IIA], the MIC (as a rule, the lowest concentration that inhibits growth of the organism) in test [1] was no less than 8 µg/mL. Turning to streptogramin A, the figures for the resistance phenotype entry in test [2] and in test [3] were “conferred resistances” and “resistant”, respectively. As for streptogramin B, the resistance phenotype result in test [2] was “conferred resistances”.
